# Data reported in patent US20130165520A1, “Hybrid Molecule Having Mixed Retinoic Acid Receptor Agonism and Histone Deacetylase Inhibitory Properties” (priority 2010, published 2013).
# How the values were obtained:
# MCF-7 = assay: Cell growth measurement; format: cell-based; details: 10 days of treatment
# Description: (§1) Finally, the effects of 3 on the growth of several breast cancer cell lines [MCF-7 (ER-positive, HER2-negative, RA-sensitive); SkBr3 (ER-negative, HER2-amplified, RA-sensitive); and the normally RA-insensitive MDA-MB-231 (ER-negative, HER2-negative, RA-insensitive)] was assessed.
# (§2) Cell Growth Measurement: Cells were plated at 40 k cells per well (6-well plate) in DMEM 5% FBS-T for all cell lines except for I-IMEC cells which were plated in supplemented MEBM from Clonetics. Cells were treated every 48 hours and media was refreshed every 96 hours. After 10 days of treatment cells were harvested in 0.1N NaOH and growth was quantified by analyzing protein content of lysates with a Lowry assay.
# MDA-MB-231 = assay: Cell growth measurement; format: cell-based; details: 10 days of treatment
# Description: as §1, §2
# SkBr3 = assay: Cell growth measurement; format: cell-based; details: 10 days of treatment
# Description: as §1, §2
# CCRF-CEM = CCRF-CEM (Leukemia); 48 h
# HL-60(TB) = HL-60(TB) (Leukemia); 48 h
# K-562 = K-562 (Leukemia); 48 h
# SR = SR (Leukemia); 48 h
# HOP-92 [1] = details: HOP-92 (Non-Small cell lung cancer); 48 h
# NCI-H226 = NCI-H226 (Non-Small cell lung cancer); 48 h
# HCT-116 = HCT-116 (Colon); 48 h
# HT29 = HT29 (Colon); 48 h
# U251 [2] = details: U251 (CNS); 48 h
# SK-MEL-28 = SK-MEL-28 (Melanoma); 48 h
# CAKI-1 = CAKI-1 (Renal); 48 h
# TK-10 = TK-10 (Renal); 48 h
# MDA-MB-231/ATCC = MDA-MB-231/ATCC (Breast); 48 h
# HOP-92 [3] = assay: cells; details: Homo sapiens, HOP-92, 48 h
# NCI-H522 = assay: cells; details: Homo sapiens, NCI-H522, 48 h
# HCC-2998 = assay: cells; details: Homo sapiens, HCC 2998, 48 h
# SW-620 = assay: cells; details: Homo sapiens, SW-620, 48 h
# U251 [4] = assay: cells; details: Homo sapiens, U-251, 48 h
# SK-MEL-2 = assay: cells; details: Homo sapiens, SK-MEL-2, 48 h
# OVCAR-3 = assay: cells; details: Homo sapiens, OVCAR-3, 48 h
# A498 = assay: cells; details: Homo sapiens, A498, 48 h
# T-47D = assay: cells; details: Homo sapiens, T47D, 48 h
# [5] = test system: acetylated histone H4 and p53 in MDA-MB-231 cells; assay: Western blotting of acetylated histone H4 and p53; details: 10 μM, 18-24 h time course
# Description: The potential of 3 to act as an HDACi and cause deacetylation of a synthetic substrate or hyperacetylation of HDACs target proteins was subsequently assessed. […] Intracellular HDACi activity was assessed by measuring levels of acetylated histone H4 and tumor suppressor protein p53 in MDA-MB-231 cells by Western blotting.
# Western Blotting: MDA-MB-231 cells were plated in DMEM 5% FBS-T at 600 k cells per well in 6-well plates. […] Laemmli buffer at various time points. Protein concentration of the extracts was analyzed by BioRad DC protein assay. 20 μg of proteins per condition were loaded on an SDS-PA gel and transferred to a nitrocellulose membrane for blotting. Blotting was done using ABCAM primary antibodies EP356 (anti-p53) T3526 (anti-Tubulin) and AB1761 (anti-acH4).
structure (smiles),measurement,setting,value
CC1(C)CCC(C)(C)c2cc(-c3ccc4cc(C(=O)NO)ccc4c3)ccc21 [hybrid 3],effect on cell growth,MCF-7,active
same,IC50,"MCF-7; Homo sapiens, MCF7, 240 h",150 nM
same,effect on cell growth,MDA-MB-231,active
same,IC50,"MDA-MB-231; Homo sapiens, 240 h",300 nM
same,effect on cell growth,SkBr3,active
same,IC50,"SkBr3; Homo sapiens, SK-BR-3, 240 h",90 nM
same,TGI,CCRF-CEM,1950 nM
same,TGI,HL-60(TB),1520 nM
same,TGI,K-562,1460 nM
same,TGI,SR,1200 nM
same,TGI,HOP-92 [1],6350 nM
same,TGI,NCI-H226,4190 nM
same,TGI,HCT-116,1500 nM
same,TGI,HT29,2340 nM
same,TGI,U251 [2],1690 nM
same,TGI,SK-MEL-28,5500 nM
same,TGI,CAKI-1,1030 nM
same,TGI,TK-10,4970 nM
same,TGI,MDA-MB-231/ATCC,3590 nM
same,GI50,HOP-92 [3],1930 nM
same,CC50,HOP-92 [3]; read-out: LC50,27200 nM
same,GI50,NCI-H522,1620 nM
same,CC50,NCI-H522; read-out: LC50,7980 nM
same,GI50,HCC-2998,1090 nM
same,CC50,HCC-2998; read-out: LC50,5750 nM
same,GI50,SW-620,626 nM
same,CC50,SW-620; read-out: LC50,4850 nM
same,GI50,U251 [4],437 nM
same,CC50,U251 [4]; read-out: LC50,4800 nM
same,GI50,SK-MEL-2,2420 nM
same,CC50,SK-MEL-2; read-out: LC50,33600 nM
same,GI50,OVCAR-3,603 nM
same,CC50,OVCAR-3; read-out: LC50,4480 nM
same,GI50,A498,1660 nM
same,CC50,A498; read-out: LC50,8710 nM
same,GI50,T-47D,1270 nM
same,CC50,T-47D; read-out: LC50,28000 nM
same,hyperacetylation of histone H4 and p53,[5],clear hyperacetylation
